Measurements reported in patent US9746484B2, “Binding partners specific for vitamin D epimers in vitamin D assays” (Siemens Healthcare Diagnostics Inc., priority 2014, dated 2017).
Several values for one entry are separate records, joined by “and”; a condition that tells them apart may be missing. Equal entries are not always repeated.

Tested on: biotinylated monoclonal anti-25OH vitamin D antibody
Assay: LOCI 25(OH)D immunoassay, 3-epimer cross-reactivity without blocking antibody
Assay type: binding, sheep
Details: no anti-3-epimer antibody; for Avg. Cross-reactivity, No anti-3-epimer VD Ab Added: average of ten patient sera spiked with 100 ng/mL 3-epimer vitamin D3
Protocol: The 25OH Vitamin D (25(OH)D) immunoassay format employed was a homogeneous competitive chemiluminescent immunoassay based on LOCI® assay technology. The assay was performed on the Siemens Dimension® EXL automated integrated clinical chemistry system (Siemens Healthcare Diagnostics Inc., Deerfield, Ill.). The assay measured the total concentration of 25(OH)D2 and/or 25(OH)D3 in serum and plasma samples. The LOCI® assay reagents included a releasing reagent, two synthetic bead reagents and a biotinylated monoclonal anti-25OH vitamin D antibody reagent. The first bead reagent (designated “Sensibeads”) was coated with streptavidin and contained a photosensitive dye. The second bead reagent (designated “Chemibeads”) was coated with a 25(OH)D3 analog and contained chemiluminescent dye. Sample was incubated with the releasing reagent to release 25(OH)D molecules including 3-epimeric compounds from vitamin D binding proteins. The reaction mixture was then incubated with biotinylated antibody to form a 25(OH)D-biotinylated antibody complex. […] Chemibeads were added to bind excess free biotinylated antibody. Sensibeads were then added to bind to the biotin portion of the biotinylated antibody. Aggregates of Chemibead-analog/antibody-biotin/streptavidin-Sensibeads were formed as a result. Illumination of the reaction mixture with light at 680 nm generates singlet oxygen from Sensibeads, which diffused into the Chemibeads and triggered a chemiluminescent reaction. The resulting chemiluminescent signal was measured at 612 nm and is inversely proportional to the concentration of total 25(OH)D in the sample.
The effect of adding anti-3-epimer-VD antibody 8F10.1 (anti-3-epimer VD Ab) on the 3-epimer cross-reactivity for the assay is shown in Table 1. […] The 3-epimer cross-reactivity was calculated by the difference between 25(OH)D2 or 25(OH)D3 values with and without the spiked 3-epimer compound divided by the amount of added 3-epimer compound.

C=C1CC[C@@H](O)C/C1=C/C=C1\CCC[C@]2(C)[C@@H]([C@H](C)CCCC(C)(C)O)CC[C@@H]12 [3-epimer D3, 3-epi-25-hydroxyvitamin D3] was tested, and the “Avg. Cross-reactivity, No anti-3-epimer VD Ab Added” value was 13.7%, the “Avg. Cross-reactivity, No anti-3-epimer VD Ab Added” value (listed as 3-epimer vitamin D3 compound) was 13.7% and the “3-epimer Cross-Reactivity, No anti-3-epimer VD Ab Added” value (individual patient sera (Sample ID 1-10) spiked with 100 ng/mL 3-epimer vitamin D3) was 17.9% (2×) and 11.9% and 12.6% and 16.1% and 10.2% and 9.1% and 10.5% and 15.3% and 15.5%.
